# According to US20230391748A1, “BICYCLIC INHIBITORS OF IRAK” (priority 2022, published 2023):
# Experiments:
# IRAK4 = IRAK4 (Homo sapiens (Human), UniProt Q9NWZ3); assay: IRAK4 ADP-Glo Assay; format: biochemical; details: MBP substrate
# Procedure: The ADP-Glo™ reagents were thawed at ambient temperature. The Kinase Detection Reagent was prepared by mixing kinase detection buffer with the lyophilized kinase detection substrate, and set aside.
# A stock volume of 5× Reaction Kinase Buffer was made with a final concentration of 100 mM MgCl2, 200 mM Tris-HCl, and 0.5 mg/ml of BSA, in distilled H2O with a final pH7.4. A 2× working stock volume of Reaction Kinase Buffer was made containing a final concentration of 100 μM DTT.
# The components of IRAK4 Enzyme were thawed on ice. Diluted IRAK4 in 1× Kinase Reaction Buffer (diluted from 2× buffer) was prepared at 5.0 ng/μl.
# Then diluted 1:5 in 2× Reaction Buffer in a 96 well plate. 1.0 μl was transferred to a 384 well plate in duplicate. […] 1 μl of 1 mg/ml stock solution of MBP substrate was added NOTE: MBP can be combined with ATP mix with equal volume and then added at 2 μl/well. Final reaction volume was 5 μl.
# The plate was centrifuged and the reaction mixture was incubated at room temperature for 60 minutes or at 30° C. for 30 minutes.
# The reaction was terminated and the remaining ATP was depleted by adding 5 μl of ADP-Glo™ Reagent. The 384-well plate was centrifuged and then the reaction mixture was incubated for another 40 minutes at ambient temperature.
# 10 μl of the Kinase Detection Reagent was added. The plate was centrifuged and then the reaction mixture was incubated for another 30 minutes at ambient temperature.
# The 384-well reaction plate was read using the WALLAC plate reader (Luminescence 0.1s).
# [1] = test system: TNF-α in Human Primary Monocyte-Derived Dendritic Cells; assay: Gardiquimod-Induced TNF-α in Human Primary Monocyte-Derived Dendritic Cells; format: cell-based; details: Dendritic cell, IFNγ-primed monocyte-derived dendritic cells, 4 μg/ml Gardiquimod, 6 hours, TNF-α ELISA, read-out: TNFα (DC, GARD) (IC50)
# Procedure: Gardiquimod-Induced TNF-α in Human Primary Monocyte-Derived Dendritic Cells
# After 2 hours, the media including floating cells was carefully removed and 12 ml of fresh RPMI media (10% FBS) containing GM-CSF (100 ng/ml) and IL-4 (20 ng/ml) were added to the adherent monocytes. The monocytes were allowed to differentiate for 7 days at 37° C., 5% CO2 for 7 days, supplementing with fresh GM-CSF and IL-4 after 3 days. The differentiated dendritic cells (DC) were harvested by centrifugation (1200 rpm/5 min). The DCs were primed at 37° C., 5% CO2 for 24 hours with 50 ng/ml IFN-γ (1000 U/ml) at 50K/well in 100 μl/well of fresh RPMI media (10% FBS) in a white clear bottom 96 well plate.
# The primed DCs were pre-incubated with test compound for 1 hour at 37° C., 5% CO2 by adding 100 μl of RPMI media containing 2× concentrated test compound per well (0.5% final DMSO concentration).
# DCs were stimulated with Gardiquimod (10 μl per well of 20× concentrated Gardiquimod solution in RPMI media to give a final concentration of 4 μg/ml) at 37° C., 5% CO2 for an additional 6 hours. The supernatant (100 μl/well) was harvested to measure TNF-α by ELISA. […] The chemiluminescence values were entered into Athena (Rigel) for curve fitting, EC50 calculation, and database storage.
# (§1) TNF-α ELISA was performed according to the vendor protocol, using 96 Well Flat-Bottom, MaxiSorp Black Immuno plates and 100 μL/well of supernatant. The plates were developed using 100 μL/well of Super Signal ELISA Pico Chemiluminescent Substrate. The plates were read with a luminometer, and the chemiluminescence values were entered into Athena (Rigel) for curve fitting, EC50 calculation, and database storage.
# IL23p19 in THP-1 Cells = assay: LPS Induced IL23p19 in THP-1 Cells (with IFNγ Primed) Assay; format: cell-based; details: Homo sapiens, THP-1, 18 h, read-out: IL23 (THP, LPS) (IC50, μM)
# Procedure: LPS Induced IL23p19 in THP-1 Cells (with IFNγ Primed) Assay
# On day 1, 50K/well THP-1 cells were seeded and primed with IFNγ (50 ng/mL) in 384-well plates for about 18 hours in RPMI media with 10% FBS. […] 50 μL/well 2× compound was added to 50 μL/well THP-1 cells (with IFNγ primed) in duplicate in 384 well tissue culture plates. […] Day 3, after stimulation for 18 hours at 37° C., 5% CO2, the assay plate was centrifuged and 70 μL/well supernatant was harvested. IL-23p19 protein in 70 µL/well of supernatant was measured by sandwich ELISA, and 25 μl/well Cell Titer Glo reagent was added to the remaining cells to measure compound toxicity.
# Maxisorp immuno ELISA plates were pre-coated with 25 μL/well of anti-IL-23p19 capture antibody (2.5 ug/mL) in PBS overnight at room temperature. […] 25 μL/well of biotin labeled anti-IL-12(p40/p70) detection antibody (100 ng/mL) in PBS with 1% BSA was added and the plates were incubated at room temperature for 2 hours with shaking. […] The plates were read with a luminometer, and the chemiluminescence values were entered into Athena (Rigel) for curve fitting, EC50 calculation, and database storage.
# TNF-α in human PBMCs = assay: R848-induced TNF-α in human PBMCs Assay; format: cell-based; details: Homo sapiens, PBMC, 4 h, read-out: TNFα (PBMC, R848) (IC50, μM)
# Procedure: R848-induced TNF-α in human PBMCs Assay
# 100 μL/well PBMCs (200K/well) were seeded in 96-well flat-bottom tissue culture plates. […] 100 μL/well 2× compound was added to the PBMC in the tissue culture plates. […] The cells were stimulated with R848 for an additional 4 hours at 37° C., 5% CO2. The supernatant (100 μl/well) was harvested to measure TNF-α by ELISA. […] The chemiluminescence values were entered into Athena (Rigel) for curve fitting, EC50 calculation, and database storage.
# as §1
# Sequence of IRAK4 (Q9NWZ3 whole entry): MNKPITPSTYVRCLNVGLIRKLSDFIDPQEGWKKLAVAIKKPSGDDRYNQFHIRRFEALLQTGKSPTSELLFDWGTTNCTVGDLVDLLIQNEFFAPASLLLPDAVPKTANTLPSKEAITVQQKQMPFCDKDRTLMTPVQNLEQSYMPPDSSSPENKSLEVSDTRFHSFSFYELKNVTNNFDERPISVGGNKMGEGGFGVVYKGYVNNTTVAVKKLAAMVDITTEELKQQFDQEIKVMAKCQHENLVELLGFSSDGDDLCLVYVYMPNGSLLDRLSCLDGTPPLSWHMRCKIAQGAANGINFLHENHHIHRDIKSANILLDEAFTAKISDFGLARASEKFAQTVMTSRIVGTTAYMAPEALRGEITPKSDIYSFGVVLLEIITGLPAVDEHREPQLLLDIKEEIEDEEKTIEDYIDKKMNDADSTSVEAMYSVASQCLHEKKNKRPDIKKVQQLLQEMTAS
Structure (SMILES),IC50 (IRAK4) [nM],IC50 [1] [nM],IC50 (IL23p19 in THP-1 Cells) [µM],IC50 (TNF-α in human PBMCs) [µM]
"CC(C)Oc1cc2c(OC[C@@H]3CCC(=O)N3)ncc(C#C[C@H]3CC[C@](C)(O)CC3)c2cc1C(N)=O [Compound I-22, 4-(((1r,4S)-4-hydroxy-4-methylcyclohexyl)ethynyl)-7-isopropoxy-1-(((S)-5-oxopyrrolidin-2-yl)methoxy)isoquinoline-6-carboxamide]",12.3,72.9,0.208,0.049
"CC(C)Oc1cc2c(OC[C@@H]3CCC(=O)N3)ncc(C#C[C@H]3CC[C@@](C)(O)CC3)c2cc1C(N)=O [Compound I-23, 4-(((1s,4R)-4-hydroxy-4-methylcyclohexyl)ethynyl)-7-isopropoxy-1-(((S)-5-oxopyrrolidin-2-yl)methoxy)isoquinoline-6-carboxamide]",11.4,566,0.712,2.12
"CC(C)Oc1cc2c(OC[C@@H]3CCC(=O)N3)ncc(C#CC3CN(C(=O)OC(C)(C)C)C3)c2cc1C(N)=O [Compound I-24, tert-butyl (S)-3-((6-carbamoyl-7-isopropoxy-1-((5-oxopyrrolidin-2-yl)methoxy)isoquinolin-4-yl)ethynyl)azetidine-1-carboxylate]",8.1,22.4,0.125,0.0763
"CC(C)Oc1cc2c(OC[C@@H]3CCC(=O)N3)ncc(C#CC3CNC3)c2cc1C(N)=O [Compound I-25, (S)-4-(azetidin-3-ylethynyl)-7-isopropoxy-1-((5-oxopyrrolidin-2-yl)methoxy)isoquinoline-6-carboxamide]",3.3,1350,12.7,2.36
"CC(C)Oc1cc2c(OC[C@@H]3CCC(=O)N3)ncc(C#CC3CN(C)C3)c2cc1C(N)=O [Compound I-26, (S)-7-isopropoxy-4-((1-methylazetidin-3-yl)ethynyl)-1-((5-oxopyrrolidin-2-yl)methoxy)isoquinoline-6-carboxamide]",2.6,161,0.726,0.363
"CC(C)Oc1cc2c(OC[C@@H]3CCC(=O)N3)ncc(C#CC3CN(C(C)C)C3)c2cc1C(N)=O [Compound I-27, (S)-7-isopropoxy-4-((1-isopropylazetidin-3-yl)ethynyl)-1-((5-oxopyrrolidin-2-yl)methoxy)isoquinoline-6-carboxamide]",5.6,514,0.634,0.176
"COC(=O)N1CC(C#Cc2cnc(OC[C@@H]3CCC(=O)N3)c3cc(OC(C)C)c(C(N)=O)cc23)C1 [Compound I-28, methyl (S)-3-((6-carbamoyl-7-isopropoxy-1-((5-oxopyrrolidin-2-yl)methoxy)isoquinolin-4-yl)ethynyl)azetidine-1-carboxylate]",6.3,111,0.14,0.0331
"CNC(=O)N1CC(C#Cc2cnc(OC[C@@H]3CCC(=O)N3)c3cc(OC(C)C)c(C(N)=O)cc23)C1 [Compound I-29, (S)-7-isopropoxy-4-((1-(methylcarbamoyl)azetidin-3-yl)ethynyl)-1-((5-oxopyrrolidin-2-yl)methoxy)isoquinoline-6-carboxamide]",5.5,1750,4.25,0.686
"COC1(OC)CC(C#Cc2cnc(OC[C@@H]3CCC(=O)N3)c3cc(OC(C)C)c(C(N)=O)cc23)C1 [Compound I-30, (S)-4-((3,3-dimethoxycyclobutyl)ethynyl)-7-isopropoxy-1-((5-oxopyrrolidin-2-yl)methoxy)isoquinoline-6-carboxamide]",6.4,71,0.142,0.0947
"CC(C)Oc1cc2c(OC[C@@H]3CCC(=O)N3)ncc(C#C[C@H]3C[C@@H](N(C)C)C3)c2cc1C(N)=O [Compound I-31, 4-((cis-3-(dimethylamino)cyclobutyl)ethynyl)-7-isopropoxy-1-(((S)-5-oxopyrrolidin-2-yl)methoxy)isoquinoline-6-carboxamide]",3.5,89.8,0.136,0.0637
"CC(C)Oc1cc2c(OC[C@@H]3CCC(=O)N3)ncc(-c3cnn(C4CC4)c3)c2cc1C(N)=O [Compound I-32, (S)-4-(1-cyclopropyl-1H-pyrazol-4-yl)-7-isopropoxy-1-((5-oxopyrrolidin-2-yl)methoxy)isoquinoline-6-carboxamide]",8.5,569,2.21,0.45
"CC(C)Oc1cc2c(OC[C@@H]3CCC(=O)N3)ncc(-c3cnn(C4CCC4)c3)c2cc1C(N)=O [Compound I-33, (S)-4-(1-cyclobutyl-1H-pyrazol-4-yl)-7-isopropoxy-1-((5-oxopyrrolidin-2-yl)methoxy)isoquinoline-6-carboxamide]",7.5,218,0.2,0.272
"CC(C)Oc1cc2c(OC[C@@H]3CCC(=O)N3)ncc(-c3cnn(C4CCCC4)c3)c2cc1C(N)=O [Compound I-34, (S)-4-(1-cyclopentyl-1H-pyrazol-4-yl)-7-isopropoxy-1-((5-oxopyrrolidin-2-yl)methoxy)isoquinoline-6-carboxamide]",7.7,470,1.3,0.295
"CC(C)Oc1cc2c(OC[C@@H]3CCC(=O)N3)ncc(-c3cnn(C4CCOCC4)c3)c2cc1C(N)=O [Compound I-35, (S)-7-isopropoxy-1-((5-oxopyrrolidin-2-yl)methoxy)-4-(1-(tetrahydro-2H-pyran-4-yl)-1H-pyrazol-4-yl)isoquinoline-6-carboxamide]",25.7,1620,7.52,1.3
"CC(C)Oc1cc2c(OC[C@@H]3CCC(=O)N3)ncc(-c3cnn(CC4CCOCC4)c3)c2cc1C(N)=O [Compound I-36, (S)-7-isopropoxy-1-((5-oxopyrrolidin-2-yl)methoxy)-4-(1-((tetrahydro-2H-pyran-4-yl)methyl)-1H-pyrazol-4-yl)isoquinoline-6-carboxamide]",13.5,398,0.976,0.377
